Assay results taken from patent US11214594B2, “Antimicrobial peptide having synergistic antibacterial effect with antibiotics on multidrug resistant bacteria, and use thereof” (priority 2016, dated 2022).
Converted amounts (≈) assume the structure as drawn. Read-outs that look alike come from different tables or passages of the source. Where a SMILES comes first, the peptide text is derived from it.

Assays:
MDRAB 12035 [1] = experiment: microbe, parasite or virus in culture; format: cell-based, Acinetobacter baumannii
How it was run: (§1)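 Peptides were serially diluted twofold in Mueller-Hinton medium and combined 1:1 with bacterial suspensions prepared at 2×10^6 CFU. Readout was the minimal inhibitory concentration, i.e. the lowest concentration with no growth.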

A. baumannii = experiment: microbe, parasite or virus in culture; format: cell-based, Acinetobacter baumannii
How it was run: as §1

[2] = tested on: multi-drug resistant bacteria; experiment: MIC, summary statements for multi-drug resistant bacteria; format: cell-based
Description: For the antibacterial activity, a minimal inhibitory concentration (MIC) of a peptide in which fungus bodies were not split in an MH medium with sufficient nutrients was measured.
Specifically, the strains described in the following [Table 2] were purchased and diluted with an MH medium such that the number of bacteria was 2×10^6 colony-forming units (CFUs), 100 μl of each of the diluted strains was aliquoted into a 96-well microtiter plate, and then 100 μl of a peptide solution diluted with the MH medium (solution diluted stepwise at 2: 1) was added to each well.

MDREC 1229 = format: cell-based, Escherichia coli
How it was run: (§2)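 Broth microdilution in MH medium; strains were diluted to 2×10^6 CFU per ml before plating. Peptide was serially diluted stepwise at 2:1 starting from its MIC, and MH-diluted antibiotic was then added to determine MIC. The reversed arrangement was also tested.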

E. coli = format: cell-based, Escherichia coli; conditions: E. coli
How it was run: as §2

MDRAB 12035 [3] = experiment: MIC of antimicrobial peptide during combined treatment with antibiotic; format: cell-based, Acinetobacter baumannii
How it was run: as §2

S. typhimurium = experiment: microbe, parasite or virus in culture; format: cell-based, Salmonella typhimurium
How it was run: as §1

MDRST 8009 = format: cell-based, Salmonella typhimurium; conditions: agent alone
How it was run: as §1

MDRAB 12036 = format: cell-based, Acinetobacter baumannii
How it was run: as §1

[4] = linezolid 64 μg/ml (Conc./MIC 1/8)
[5] = linezolid 512 μg/ml (Conc./MIC 1)
[6] = vancomycin 512 μg/ml (Conc./MIC 1/2)
[7] = vancomycin 1024 μg/ml (Conc./MIC 1)

Which “Minimal inhibitory concentration MIC” value (MDRAB 12035 [1]) does the source give for CC[C@H](C)[C@H](NC(=O)[C@H](CCCCN)NC(=O)[C@H](Cc1c[nH]c2ccccc12)NC(=O)[C@@H](N)CCCNC(=N)N)C(=O)N[C@@H](Cc1ccccc1)C(=O)N[C@@H](CCCCN)C(=O)N[C@@H](CCCCN)C(=O)N[C@H](C(=O)N1CCC[C@H]1C(=O)N[C@@H](CCCCN)C(=O)N[C@@H](CC(C)C)C(=O)N[C@@H](CC(C)C)C(=O)N[C@@H](Cc1c[nH]cn1)C(=O)N[C@@H](CCC(=O)O)C(=O)N[C@@H](Cc1ccccc1)C(=O)N[C@@H](CCCCN)C(=O)N[C@@H](CCCCN)C(=O)N[C@@H](Cc1ccccc1)C(N)=O)[C@@H](C)CC [PapMA-12, RWK IFK KIP KLL HEF KKF-NH2] (H-RWKIFKKIPKLLHEFKKF-NH2; N-terminus assumed) here?
Its value is 8 µg/mL (≈ 3.35 µM).

What about the “Peptide MIC, peptide alone” value (MDRAB 12035 [1]) of the same molecule?
Its value is 8 µg/mL.

What about the “Minimal inhibitory concentration MIC” value (A. baumannii) of the same molecule?
The value was 8 µg/mL (≈ 3.35 µM).

And the “Antibacterial activity relative to PapMA-1” value (A. baumannii; A. baumannii and S. typhimurium)?
Its value is “at least twice as high”.

And the “Antibacterial activity relative to PapMA-1” value [2]?
Its value is “twice to four times higher”.

And the “Peptide MIC during treatment with antibiotic” value (MDREC 1229; erythromycin 32 μg/ml (Conc./MIC 1/8))?
Its value is 2 µg/mL.

And the “Peptide MIC during treatment with antibiotic” value (MDREC 1229; erythromycin 64 μg/ml (Conc./MIC 1/4))?
Its value is 2 µg/mL.

And the “Peptide MIC during treatment with antibiotic” value (MDREC 1229; erythromycin […] (Conc./MIC 1))?
Its value is 0 µg/mL.

What about the “Peptide MIC during treatment with antibiotic” value (MDREC 1229; erythromycin […] (Conc./MIC 1/2)) of the same molecule?
Its value is 1 µg/mL.

And the “Peptide MIC during treatment with antibiotic” value (MDREC 1229; [4])?
Its value is 4 µg/mL.

And the “Peptide MIC during treatment with antibiotic” value (MDREC 1229; [5])?
The value was 0 µg/mL.

What about the “Peptide MIC during treatment with antibiotic” value (MDREC 1229; linezolid […] (Conc./MIC 1/2)) of the same molecule?
The value was 1 µg/mL.

What about the “Peptide MIC during treatment with antibiotic” value (MDREC 1229; linezolid […] (Conc./MIC 1/4)) of the same molecule?
Its value is 2 µg/mL.

And the “Peptide MIC during treatment with antibiotic” value (MDREC 1229; [6])?
The value was 2 µg/mL.

And the “Peptide MIC during treatment with antibiotic” value (MDREC 1229; [7])?
Its value is 1 µg/mL.

What about the “Peptide MIC during treatment with antibiotic” value (MDREC 1229; vancomycin […] (Conc./MIC 1/4)) of the same molecule?
The value was 4 µg/mL.

What about the “Peptide MIC during treatment with antibiotic” value (MDREC 1229; vancomycin […] (Conc./MIC 1/8)) of the same molecule?
The value was 4 µg/mL.

What about the “Peptide MIC” value (E. coli; with Erythromycin […] (Conc./MIC 1)) of the same molecule?
The value was 0 µg/mL.

And the “Peptide MIC” value (E. coli; with Linezolid […] (Conc./MIC 1))?
Its value is 0 µg/mL.

What about the “Peptide MIC” value (E. coli; with Vancomycin 1024 μg/ml (Conc./MIC 1)) of the same molecule?
Its value is 0 µg/mL.

What about the “Peptide MIC during treatment with erythromycin” value (MDRAB 12035 [3]; erythromycin 4 μg/ml (Conc./MIC 1/8)) of the same molecule?
The value was 4 µg/mL.

What about the “Peptide MIC during treatment with erythromycin” value (MDRAB 12035 [3]; erythromycin 8 μg/ml (Conc./MIC 1/4)) of the same molecule?
The value was 2 µg/mL.

And the “Peptide MIC during treatment with erythromycin” value (MDRAB 12035 [3]; erythromycin 16 μg/ml (Conc./MIC 1/2))?
Its value is 1 µg/mL.

What about the “Peptide MIC during treatment with erythromycin” value (MDRAB 12035 [3]; erythromycin 32 μg/ml (Conc./MIC 1)) of the same molecule?
Its value is 0 µg/mL.

And the “Peptide MIC during treatment with linezolid” value (MDRAB 12035 [3]; [4])?
Its value is 2 µg/mL.

And the “Peptide MIC during treatment with linezolid” value (MDRAB 12035 [3]; [5])?
The value was 0 µg/mL.

What about the “Peptide MIC during treatment with linezolid” value (MDRAB 12035 [3]; linezolid […] (Conc./MIC 1/2)) of the same molecule?
The value was 1 µg/mL.

And the “Peptide MIC during treatment with linezolid” value (MDRAB 12035 [3]; linezolid […] (Conc./MIC 1/4))?
The value was 1 µg/mL.

And the “Peptide MIC during treatment with vancomycin” value (MDRAB 12035 [3]; [6])?
Its value is 2 µg/mL.

And the “Peptide MIC during treatment with vancomycin” value (MDRAB 12035 [3]; [7])?
The value was 1 µg/mL.

What about the “Peptide MIC during treatment with vancomycin” value (MDRAB 12035 [3]; vancomycin […] (Conc./MIC 1/4)) of the same molecule?
Its value is 2 µg/mL.

And the “Peptide MIC during treatment with vancomycin” value (MDRAB 12035 [3]; vancomycin […] (Conc./MIC 1/8))?
The value was 2 µg/mL.

And the “Minimal inhibitory concentration MIC” value (S. typhimurium)?
The value was 16 µg/mL (≈ 6.71 µM).

What about the “Minimal inhibitory concentration MIC” value (MDRST 8009) of the same molecule?
The value was 32 µg/mL (≈ 13.4 µM).

And the “Minimal inhibitory concentration MIC” value (MDRAB 12036)?
Its value is 16 µg/mL (≈ 6.71 µM).
